Assay results from ChEMBL document CHEMBL1137232 (J Med Chem, 2004).

Key:
[1] = target: Norepinephrine transporter (Rattus norvegicus, UniProt Q9WTR4); test: Inhibition of high affinity uptake by the norepinephrine transporter from rat synaptosomal nerve endings by using [3H]NE as radioligand
[2] = target: Sodium-dependent serotonin transporter (Rattus norvegicus, UniProt P31652); test: Inhibition of high affinity uptake by the serotonin transporter (5-HT) from rat synaptosomal nerve endings by using [3H]5-HT as radioligand
[3] = target: Sodium-dependent dopamine transporter (Rattus norvegicus, UniProt P23977); test: Inhibition of high affinity uptake by the dopamine transporter from rat synaptosomal nerve endings by using [3H]DA as radioligand
Sodium-dependent dopamine transporter, sequence (P23977 whole entry): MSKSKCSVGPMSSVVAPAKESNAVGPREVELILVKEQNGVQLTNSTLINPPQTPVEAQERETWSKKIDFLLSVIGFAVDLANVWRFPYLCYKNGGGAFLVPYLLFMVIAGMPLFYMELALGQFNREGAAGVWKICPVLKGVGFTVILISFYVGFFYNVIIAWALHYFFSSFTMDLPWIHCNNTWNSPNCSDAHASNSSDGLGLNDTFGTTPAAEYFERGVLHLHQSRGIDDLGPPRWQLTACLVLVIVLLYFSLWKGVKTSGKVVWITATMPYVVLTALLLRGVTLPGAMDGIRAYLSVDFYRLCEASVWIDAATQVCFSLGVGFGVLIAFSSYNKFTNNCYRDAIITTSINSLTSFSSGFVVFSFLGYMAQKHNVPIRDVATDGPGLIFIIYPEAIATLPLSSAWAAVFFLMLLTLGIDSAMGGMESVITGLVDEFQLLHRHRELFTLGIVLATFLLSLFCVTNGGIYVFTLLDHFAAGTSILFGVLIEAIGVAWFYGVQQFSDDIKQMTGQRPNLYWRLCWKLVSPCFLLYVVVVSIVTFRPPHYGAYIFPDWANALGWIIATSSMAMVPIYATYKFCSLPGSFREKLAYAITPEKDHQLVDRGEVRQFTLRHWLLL

Norepinephrine transporter, sequence (Q9WTR4 whole entry): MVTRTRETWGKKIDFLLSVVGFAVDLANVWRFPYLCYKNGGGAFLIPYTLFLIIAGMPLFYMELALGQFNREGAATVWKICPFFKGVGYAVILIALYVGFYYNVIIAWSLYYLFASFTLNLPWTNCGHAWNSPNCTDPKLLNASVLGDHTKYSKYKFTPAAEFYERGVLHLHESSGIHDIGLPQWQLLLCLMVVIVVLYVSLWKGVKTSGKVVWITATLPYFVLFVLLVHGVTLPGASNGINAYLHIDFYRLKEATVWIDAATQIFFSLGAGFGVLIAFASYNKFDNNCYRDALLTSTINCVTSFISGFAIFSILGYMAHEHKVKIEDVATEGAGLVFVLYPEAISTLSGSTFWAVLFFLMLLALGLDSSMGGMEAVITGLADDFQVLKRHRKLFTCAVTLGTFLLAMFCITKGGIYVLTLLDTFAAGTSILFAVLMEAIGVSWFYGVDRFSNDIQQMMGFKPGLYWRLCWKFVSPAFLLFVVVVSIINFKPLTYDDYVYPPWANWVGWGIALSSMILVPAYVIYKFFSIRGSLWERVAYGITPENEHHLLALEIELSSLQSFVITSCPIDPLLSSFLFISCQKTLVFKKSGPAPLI
Sodium-dependent serotonin transporter, sequence (P31652 whole entry): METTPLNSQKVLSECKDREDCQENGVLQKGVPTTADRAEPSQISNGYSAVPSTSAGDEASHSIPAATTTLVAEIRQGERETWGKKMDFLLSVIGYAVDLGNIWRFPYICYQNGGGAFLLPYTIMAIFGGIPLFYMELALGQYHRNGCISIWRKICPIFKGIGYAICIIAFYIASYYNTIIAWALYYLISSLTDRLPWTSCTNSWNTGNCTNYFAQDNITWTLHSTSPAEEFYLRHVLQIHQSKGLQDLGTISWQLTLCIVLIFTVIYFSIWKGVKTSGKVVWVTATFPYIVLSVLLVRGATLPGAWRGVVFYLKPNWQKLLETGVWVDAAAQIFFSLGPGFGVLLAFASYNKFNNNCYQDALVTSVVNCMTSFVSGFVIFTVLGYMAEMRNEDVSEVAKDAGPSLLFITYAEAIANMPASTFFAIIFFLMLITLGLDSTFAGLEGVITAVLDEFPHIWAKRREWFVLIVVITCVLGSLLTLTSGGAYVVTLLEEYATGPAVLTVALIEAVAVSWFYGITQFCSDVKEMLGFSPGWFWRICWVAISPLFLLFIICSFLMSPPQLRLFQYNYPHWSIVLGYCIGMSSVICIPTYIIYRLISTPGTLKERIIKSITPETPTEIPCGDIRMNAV

SMILES	Ki [1]	Ki [2]	Ki [3]
COC(=O)CSCC1CNCCC1c1ccc(Cl)cc1 (stereo not given)	0.56 nM	13 nM	51 nM
CN1CCC(c2ccc(Cl)cc2)C(C[S+]([O-])CC(=O)N(C)C)C1 (stereo not given)	1250 nM	924 nM	2880 nM
COC(=O)C[S+]([O-])CC1CN(C)CCC1c1ccc(Cl)cc1 (stereo not given)	53 nM	809 nM	231 nM
COCC[S+]([O-])CC1CN(C)CCC1c1ccc(Cl)cc1 (stereo not given)	25 nM	469 nM	15 nM
CC(C)NC(=O)CSCC1CN(C)CCC1c1ccc(Cl)cc1 (stereo not given)	0.8 nM	1.1 nM	1 nM
CN1CCC(c2ccc(Cl)cc2)C(C[S+]([O-])CCOC(=O)c2ccccc2)C1 (stereo not given)	18 nM	199 nM	32 nM
CN1CCC(c2ccc(Cl)cc2)C(C[S+]([O-])CC(=O)N2CCCCC2)C1 (stereo not given)	460 nM	825 nM	379 nM
CN1CCC(c2ccc(Cl)cc2)C(C[S+]([O-])CC(=O)NO)C1 (stereo not given)	12 nM	1800 nM	55 nM
NC(=O)C[S+]([O-])CC1CNCCC1c1ccc(Cl)cc1 (stereo not given)	31 nM	775 nM	108 nM
CN1CCC(c2ccc(Cl)cc2)C(CSCC(=O)N2CCCCC2)C1 (stereo not given)	0.68 nM	4.5 nM	83 nM
CNC(=O)C[S+]([O-])CC1CN(C)CCC1c1ccc(Cl)cc1 (stereo not given)	86 nM	2030 nM	164 nM
COCCSCC1CN(C)CCC1c1ccc(Cl)cc1 (stereo not given)	6 nM	191 nM	50 nM
CC(C)NC(=O)C[S+]([O-])CC1CN(C)CCC1c1ccc(Cl)cc1 (stereo not given)	20 nM	473 nM	248 nM
CNC(=O)CSCC1CN(C)CCC1c1ccc(Cl)cc1 (stereo not given)	25 nM	110 nM	13 nM
CN1CCC(c2ccc(Cl)cc2)C(CSCC(=O)NO)C1 (stereo not given)	15 nM	227 nM	85 nM
CC(=O)OCC[S+]([O-])CC1CN(C)CCC1c1ccc(Cl)cc1 (stereo not given)	29 nM	87 nM	9 nM
CN1CCC(c2ccc(Cl)cc2)C(CSCC(=O)N(C)C)C1 (stereo not given)	27 nM	88 nM	116 nM
CN1CCC(c2ccc(Cl)cc2)C(CSCC(N)=O)C1 (stereo not given)	39 nM	557 nM	159 nM
NC(=O)CSCC1CNCCC1c1ccc(Cl)cc1 (stereo not given)	10 nM	170 nM	114 nM
CN1CCC(c2ccc(Cl)cc2)C(CI)C1 (stereo not given)	424 nM	238 nM	376 nM
CC(=O)OCCSCC1CN(C)CCC1c1ccc(Cl)cc1 (stereo not given)	3.6 nM	57 nM	35 nM
CN1CCC(c2ccc(Cl)cc2)C(C[S+]([O-])CCO)C1 (stereo not given)	42 nM	2180 nM	12 nM
CN1CCC(c2ccc(Cl)cc2)C(C[S+]([O-])CC(N)=O)C1 (stereo not given)	–	5790 nM	209 nM
Cc1noc(CSCC2CN(C)CCC2c2ccc(Cl)cc2)n1 (stereo not given)	32 nM	221 nM	126 nM
Cc1noc(C[S+]([O-])CC2CN(C)CCC2c2ccc(Cl)cc2)n1 (stereo not given)	218 nM	1080 nM	1650 nM
COC(=O)CSCC1CN(C)CCC1c1ccc(Cl)cc1 (stereo not given)	25 nM	208 nM	80 nM
CN1CCC(c2ccc(Cl)cc2)C(CSCCO)C1 (stereo not given)	0.94 nM	158 nM	16 nM
CN1CCC(c2ccc(Cl)cc2)C(CSCCOC(=O)c2ccccc2)C1 (stereo not given)	4.5 nM	6.7 nM	68 nM
COC(=O)C1CN(C)CCC1c1ccc(Cl)cc1 (stereo not given)	252 nM	8490 nM	–
